Experimental data as given in patent US4485117A, “Antiprotozoal compounds” (priority 1981, dated 1984).
≈ marks a conversion by molar mass, not a printed value. Where two headings read alike, the source gives them in different places.

Columns and labels:
cyclo oxygenase = test: Enzyme assay, inhibition of cyclo oxygenase; type: biochemical, rabbit; details: in vitro
lipoxygenase = test: Enzyme assay, inhibition of lipoxygenase; type: biochemical, rabbit; details: in vitro
rat eye = test: Anti-inflammatory activity in the rat eye (bacterial endotoxin induced); type: in vivo; details: assessed at 24 and 48 hours
Method: The anti-inflammatory activity in the rat eye was determined, following both oral and topical administration, of 2-(4-t-butylcyclohexyl)-3-hydroxy-1,4-naphthoquinone. The inflammatory response for the test employed developed following injection of gram-negative bacterial endotoxin into the rat foodpad (Rosenbaum et. al Nature 286, 611-613 (1980)).
Vasodilation was assessed at 24 and 48 hours using a slit lamp, the rats then killed and the aqueous humour aspirated for determination of protein concentrations and total leucocyte numbers. The results are shown below as ED50.

in vivo = details: rat, rats, oral, read-out: acute oral LD50
Method: The acute oral LD50 's of compounds of formula (I) in rats were determined by standard techniques.

Plasmodium falciparum = test: Inhibitory effect on Plasmodium falciparum in culture (G-3H-hypoxanthine uptake); type: cell-based; details: for IC50: P. falciparum culture, 36 hours, read-out: ED50 (the source's name)
Method: Compounds of the following formula, including compounds of formula (I), were examined for their inhibitory effect on Plasmodium falciparum. [drawing 11]
The test method was a modification of that described by Desjardins et al., Antimicrob. Agents and Chemotherapy,1979,16,710-718. Compounds were dissolved in ethanol at a concentration of 1000 mg/L and dilutions down to 1 mg/L were made. The drug solutions were serially diluted using RPMI 1640 medium+10% human plasma in microtitration plates. Parasitised and fresh red blood cells were added together with G^3 H-hypoxanthine, in RPMI 1640 medium+10% human plasma and the cultures incubated for 36 hours. Cultures were then harvested, the particulate contents collected on a glass-fibre filter paper and washed copiously with water. The filter papers were dried and the radioactivity measured using a scintillation counter. Infected untreated and uninfected untreated cultures were included as controls. Percent inhibition was correlated with dose to provide an ED50.

E. tenella = test: In vitro activity against E. tenella in cell cultures; type: cell-based; details: Eimeria tenella, 96 hours, read-out: MIC (minimum inhibitory concentration)
Method: Compounds tested in Example 5 were assessed for their activity against E. tenella. In the method employed cell cultures were infected with sporozoite suspensions of E. tenella immediately after addition of the compounds. […] After incubation for 96 hours the cultures were fixed and the cells were stained with 0.1% toluidine blue. The stained cultures were examined microscopically for presence of parasites.

E. acervulina = test: In vivo anticoccidiosis screen in chicks, E. acervulina; set-up: species or system Eimeria acervulina; male Ross Ranger chicks; key: A: absent; P: present; M: 95% clearance in comparision with untreated controls; details: 6 days, fifth day of infection
Method: (§1) Compounds tested in Example 7(a) were examined in an in vivo anticoccidiosis screen.
(§2) The compounds were administered to groups of 5 male Ross Ranger chicks (7 days old), at various dosages in the diet, for 6 days. The chicks were each infected with Eimeria tenella and E. acervulina one day after the beginning of the medication. The number of birds cleared of E. tenella lesions was noted on the fifth day of infection as was the presence or absence of E. acervulina oocysts in the droppings. The results are shown in Table 3, in which the numbers refer to the number of birds cleared of E. tenella and the letters indicate the presence or absence of E. acervulina /A=absent; P=present; M=95% clearance in comparision with untreated controls/.

Eimeria tenella = test: In vivo anticoccidiosis screen in chicks, E. tenella; set-up: species or system Eimeria tenella; male Ross Ranger chicks; details: 6 days, fifth day of infection, groups of 5
Method: as §1, §2

malaria = details: background art; cited from earlier work

CC(C)(C)C1CCC(C2=C(O)C(=O)c3ccccc3C2=O)CC1 (stereo not shown) [2-(4'-t-butylcyclohexyl)-3-hydroxy-1,4-naphthoquinone]
IC50 (cyclo oxygenase): 58000 nM | IC50 (lipoxygenase): 23000 nM | ED50 (rat eye; Rattus norvegicus, oral): 5 to 25 mg/kg | ED50, anti-inflammatory activity in the rat eye (rat eye; topical): 10-20 ug/eye | LD50 (in vivo): > 1000 mg/kg

CCC(C)(C)C1CCC(C2=C(O)C(=O)c3ccccc3C2=O)CC1 (stereo not shown) [2-hydroxy-3-(4'-t-pentylcyclohexyl)-1,4-naphthoquinone]
IC50 (cyclo oxygenase): 63000 nM | IC50 (lipoxygenase): 29000 nM

CC(C)(C)C1CCCC(C2=C(O)C(=O)c3ccccc3C2=O)C1 (stereo not drawn) [3'-t-Butyl (80% trans), reference compound]
IC50 (Plasmodium falciparum; Plasmodium falciparum, 36 h): 300 nM | MIC (E. tenella): 4 µM (≈ 1.25 µg/mL)

O=C1C(O)=C([C@H]2CC[C@H](C3CCCCC3)CC2)C(=O)c2ccccc21 [4'-Cyclohexyl (100% trans), reference compound]
IC50 (Plasmodium falciparum; Plasmodium falciparum, 36 h): 4.05 nM | presence or absence of E. acervulina oocysts in the droppings (E. acervulina; 50 ppm in diet): P | presence or absence of E. acervulina oocysts in the droppings (E. acervulina; 100 ppm in diet): P | presence or absence of E. acervulina oocysts in the droppings (E. acervulina; 200 ppm in diet): A | MIC (E. tenella): 0.092 µM (≈ 0.0311 µg/mL) | number of birds cleared of E. tenella lesions (Eimeria tenella; 50 ppm in diet): 1/5 | number of birds cleared of E. tenella lesions (Eimeria tenella; 100 ppm in diet): 5/5 | number of birds cleared of E. tenella lesions (Eimeria tenella; 200 ppm in diet): 5/5

C[C@H]1CC[C@H](C2=C(O)C(=O)c3ccccc3C2=O)CC1 [4'-Methyl (100% trans), reference compound]
IC50 (Plasmodium falciparum; Plasmodium falciparum, 36 h): 9.2 nM | MIC (E. tenella): 0.46 µM (≈ 0.124 µg/mL)

CC(C)(C)C1CCC(C2=C(O)C(=O)c3ccccc3C2=O)CC1 (stereo not drawn) [4'-t-Butyl (50% trans), 2-(4'-t-butylcyclohexyl)-3-hydroxy-1,4-naphthoquinone]
IC50 (Plasmodium falciparum; 2160 min): 0.599 nM

CC(C)(C)C1CCC(C2=C(O)C(=O)c3ccccc3C2=O)CC1 (stereo not drawn) [4'-t-Butyl (75% trans), 2-(4'-t-butylcyclohexyl)-3-hydroxy-1,4-naphthoquinone]
IC50 (Plasmodium falciparum; 2160 min): 0.0563 nM

CC(C)(C)C1CCC(C2=C(O)C(=O)c3ccccc3C2=O)CC1 (stereo not drawn) [4'-t-Butyl (80% trans), 2-(4'-t-butylcyclohexyl)-3-hydroxy-1,4-naphthoquinone]
IC50 (Plasmodium falciparum; 2160 min): 0.0375 nM | presence or absence of E. acervulina oocysts in the droppings (E. acervulina; 50 ppm in diet): P | presence or absence of E. acervulina oocysts in the droppings (E. acervulina; 100 ppm in diet): A | MIC (E. tenella): 0.01 µM (≈ 0.00312 µg/mL) | number of birds cleared of E. tenella lesions (Eimeria tenella; 50 ppm in diet): 0/5 | number of birds cleared of E. tenella lesions (Eimeria tenella; 100 ppm in diet): 5/5

CC(C)(C)[C@H]1CC[C@@H](C2=C(O)C(=O)c3ccccc3C2=O)CC1 [4'-t-Butyl (100% cis), 2-(cis-4'-t-butylcyclohexyl)-3-hydroxy-1,4-naphthoquinone]
IC50 (Plasmodium falciparum; Plasmodium falciparum, 36 h): 1.08 nM | MIC (E. tenella): 0.025 µM (≈ 0.00781 µg/mL)

CC(C)(C)[C@H]1CC[C@H](C2=C(O)C(=O)c3ccccc3C2=O)CC1 [4'-t-Butyl (100% trans), 2-(trans-4'-t-butylcyclohexyl)-3-hydroxy-1,4-naphthoquinone]
IC50 (Plasmodium falciparum; Plasmodium falciparum, 36 h): 0.0571 nM

CCC(C)(C)C1CCC(C2=C(O)C(=O)c3ccccc3C2=O)CC1 (stereo not drawn) [4'-t-Pentyl (50% trans), 2-hydroxy-3-(4'-t-pentylcyclohexyl)-1,4-naphthoquinone]
MIC (E. tenella): 0.0096 µM (≈ 0.00313 µg/mL)

CCC(C)(C)C1CCC(C2=C(O)C(=O)c3ccccc3C2=O)CC1 (stereo not drawn) [4'-t-Pentyl (60% trans), 2-hydroxy-3-(4'-t-pentylcyclohexyl)1,4-naphthoquinone]
IC50 (Plasmodium falciparum; Plasmodium falciparum, 36 h): 0.06 nM | presence or absence of E. acervulina oocysts in the droppings (E. acervulina; 50 ppm in diet): M (95% clearance in comparision with untreated controls) | presence or absence of E. acervulina oocysts in the droppings (E. acervulina; 100 ppm in diet): A | presence or absence of E. acervulina oocysts in the droppings (E. acervulina; 200 ppm in diet): A | number of birds cleared of E. tenella lesions (Eimeria tenella; 50 ppm in diet): 4/5 | number of birds cleared of E. tenella lesions (Eimeria tenella; 100 ppm in diet): 5/5 | number of birds cleared of E. tenella lesions (Eimeria tenella; 200 ppm in diet): 5/5

O=C1C(O)=C(CCCCCCCCC2CCCCC2)C(=O)c2ccccc21 [Menoctone, 2-(8-cyclohexyloctyl)-3-hydroxy-1,4-naphthoquinone, reference compound]
activity in man (in words) (malaria): poor activity in man | ED50 (Plasmodium falciparum; 36 h): 2.55×10^-7
